A word on the IC50: it is the midpoint of a concentration-inhibition curve. Higher therefore signals weaker potency.

Molecules are shown by their SMILES.

The target in experiment [1] is T1, BRD4 bromo domain 2 [BRD4(2)] (Homo sapiens, UniProt O60885).
T1 construct: N-terminally His6-tagged BRD4(2) (amino acids 357-445); made in house; host or cells: E. coli
Description: BRD4/acetylated peptide H4 binding assay (TR-FRET), BRD4 bromo domain 2. The following applies: inhibition of BRD4(2)/Ac-H4 peptide interaction. The method in brief: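 Binding of His6-BRD4(2) (aa 357-445, 100 nM final) to biotinylated tetra-acetylated H4 peptide read by TR-FRET (665/620 nm). Compound preincubated 10 min at 22 °C, then 1 h at 22 °C plus ≥3 h at 4 °C. Eleven concentrations (0.1 nM–20 μM) in duplicate; IC50 by 4-parameter fit.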

Experiment [2] has as its system B16F10 cells. Description: Cell proliferation assay (alamarBlue), B16F10. The format is cell-based. As to conditions: Mus musculus, B16-F10; B16F10 (melanoma, BRAF wild-type), 96 hours. The method, then:
(§1) In accordance with the invention, the ability of the substances to inhibit cell proliferation was determined. Cell viability was determined by means of the alamarBlue® reagent (Invitrogen) in a Victor X3 Multilabel Reader (Perkin Elmer). The excitation wavelength was 530 nm and the emission wavelength […].
The B16F10 cells (ATCC, CRL-6475) were sown at a concentration of 300-500 cells/well in 100 μl of growth medium (DMEM with phenol red, 10% FCS) on 96-well microtitre plates.
(§2) After overnight incubation at 37° C., the fluorescence values were determined (CI values). Then the plates were treated with various substance dilutions (1E-5 M, 3E-6 M, 1E-6 M, 3E-7 M, 1E-7 M, 3E-8 M, 1E-8 M) and incubated at 37° C. over 96 hours (MOLM-13, B16F10, CHL-1 cells) or 120 hours (MOLP-8 cells). Subsequently, the fluorescence values were determined (CO values). For the data analysis, the CI values were subtracted from the CO values and the results were compared between cells which had been treated with various dilutions of the substance or only with buffer solution. The IC50 values (substance concentration needed for 50% inhibition of cell proliferation) were calculated therefrom.
For orientation: Alamar Blue is a resazurin reagent that responds to reducing activity.

Experiment [3] has as its system MOLM-13 cells. Description: Cell proliferation assay (alamarBlue), MOLM-13. The format is cell-based. The following applies: Homo sapiens; MOLM-13 (acute myeloid leukaemia), 96 hours. On the procedure: as §1
The MOLM-13 cells (DSMZ, ACC 554) were sown at a concentration of 4000 cells/well in 100 μl of growth medium (RPMI1640, 10% FCS) on 96-well microtitre plates.
as §2

Take `C[C@@H]1C(=O)N(C)c2ccc(Nc3cccc(S(=O)(=O)NC4CCN(C)CC4)c3)nc2N1C1CCOCC1` [Example 20, 3-{[(3R)-1,3-Dimethyl-2-oxo-4-(tetrahydro-2H-pyran-4-yl)-1,2,3,4-tetrahydropyrido[2,3-b]pyrazin-6-yl]amino}-N-(1-methylpiperidin-4-yl)benzenesulphonamide]: the IC50 in experiment [1] was 52 nM; in experiment [2], 556 nM; in experiment [3], 175 nM.

Take `C[C@@H]1C(=O)N(C)c2ccc(Nc3cccc(S(=O)(=O)NCCN(C)C)c3)nc2N1C1CCOCC1` [Example 21]: the results for the 50% inhibitory concentration (IC50) in experiment [1], in experiment [2] and in experiment [3] were 53 nM, 626 nM and 237 nM, respectively.

For `CCNS(=O)(=O)c1cccc(Nc2ccc3c(n2)N(C2CCOCC2)[C@H](C)C(=O)N3C)c1` [Example 23, 3-{[(3R)-1,3-dimethyl-2-oxo-4-(tetrahydro-2H-pyran-4-yl)-1,2,3,4-tetrahydropyrido[2,3-b]pyrazin-6-yl]amino}-N-ethylbenzenesulphonamide], the IC50 in experiment [1] turned out to be 39 nM; in experiment [2] it was 44 nM; in experiment [3] it was 47 nM.

Turning to `C[C@@H]1C(=O)N(C)c2ccc(Nc3cccc(S(=O)(=O)N4CCCC4)c3)nc2N1C1CCN(C)CC1` [Example 24, (3R)-1,3-Dimethyl-4-(1-methylpiperidin-4-yl)-6-{[3-(pyrrolidin-1-ylsulphonyl)phenyl]amino}-3,4-dihydropyrido[2,3-b]pyrazin-2(1H)-one], the half-maximal inhibitory concentration (IC50) in experiment [1] turned out to be 55 nM; in experiment [2] it was 112 nM; in experiment [3], 20 nM.

With `COc1ccc(S(=O)(=O)N2CCOCC2)cc1Nc1ccc2c(n1)N(C1CCN(C)CC1)[C@H](C)C(=O)N2C` [Example 25, (3R)-6-{[2-Methoxy-5-(morpholin-4-ylsulphonyl)phenyl]amino}-1,3-dimethyl-4-(1-methylpiperidin-4-yl)-3,4-dihydropyrido[2,3-b]pyrazin-2(1H)-one], the IC50 was found to be 56 nM in experiment [1], 43 nM in experiment [2] and 18 nM in experiment [3].

As for `C[C@@H]1C(=O)N(C)c2ccc(Nc3cccc(S(=O)(=O)NC4CC4)c3)nc2N1C1CCOCC1` [Example 26, N-Cyclopropyl-3-{[(3R)-1,3-dimethyl-2-oxo-4-(tetrahydro-2H-pyran-4-yl)-1,2,3,4-tetrahydropyrido[2,3-b]pyrazin-6-yl]amino}benzenesulphonamide], the IC50 in experiment [1] is 31 nM; in experiment [2] it was 25 nM; in experiment [3] it was 32 nM.

Consider `C[C@@H]1C(=O)N(C)c2ccc(Nc3cccc(S(=O)(=O)N4CCCC4)c3)nc2N1C1CCOCC1` [Example 27, (3R)-1,3-Dimethyl-6-{[3-(pyrrolidin-1-ylsulphonyl)phenyl]amino}-4-(tetrahydro-2H-pyran-4-yl)-3,4-dihydropyrido[2,3-b]pyrazin-2(1H)-one], for which the results for the IC50 in experiment [1], in experiment [2] and in experiment [3] were 40 nM, 60 nM and 41 nM, respectively.

In the case of `COc1ccc(S(=O)(=O)N2CCOCC2)cc1Nc1ccc2c(n1)N(C1CCOCC1)[C@H](C)C(=O)N2C` [Example 28, (3R)-6-{[2-Methoxy-5-(morpholin-4-ylsulphonyl)phenyl]amino}-1,3-dimethyl-4-(tetrahydro-2H-pyran-4-yl)-3,4-dihydropyrido[2,3-b]pyrazin-2(1H)-one], the figures for the IC50 in experiment [1], in experiment [2] and in experiment [3] were 53 nM, 30 nM and 21 nM, respectively.

As to `C[C@@H]1C(=O)N(C)c2ccc(Nc3cccc(S(=O)(=O)N4CC(F)(F)C4)c3)nc2N1C1CCN(C)CC1` [Example 29, (3R)-6-({3-[(3,3-Difluoroazetidin-1-yl)sulphonyl]phenyl}amino)-1,3-dimethyl-4-(1-methylpiperidin-4-yl)-3,4-dihydropyrido[2,3-b]pyrazin-2(1H)-one], the figures for the IC50 in experiment [1], in experiment [2] and in experiment [3] were 64 nM, 230 nM and 64 nM, respectively.

On to `COc1ccc(S(=O)(=O)N2CC3(COC3)C2)cc1Nc1ccc2c(n1)N(C1CCOCC1)[C@H](C)C(=O)N2C` [Example 30, (3R)-6-{[2-Methoxy-5-(2-oxa-6-azaspiro[3.3]hept-6-ylsulphonyl)phenyl]amino}-1,3-dimethyl-4-(tetrahydro-2H-pyran-4-yl)-3,4-dihydropyrido[2,3-b]pyrazin-2(1H)-one], for which the IC50 in experiment [1] is 58 nM; in experiment [2], 165 nM; in experiment [3], 152 nM.

In the case of `C[C@@H]1C(=O)N(C)c2ccc(Nc3cccc(S(=O)(=O)NC4CCN(C)CC4)c3)nc2N1Cc1ccccc1` [Example 33, 3-{[(3R)-4-benzyl-1,3-dimethyl-2-oxo-1,2,3,4-tetrahydropyrido[2,3-b]pyrazin-6-yl]amino}-N-(1-methylpiperidin-4-yl)benzenesulphonamide], the IC50 stood at 76 nM in experiment [1], 157 nM in experiment [2] and 16 nM in experiment [3].

Regarding `CC(C)N1c2nc(Nc3cccc(S(=O)(=O)N[C@H]4CC[C@H](N5CCN(CC6CC6)CC5)CC4)c3)ccc2N(C)C(=O)[C@H]1C` [Example 34, N-{trans-4-[4-(cyclopropylmethyl)piperazin-1-yl]cyclohexyl}-3-{[(3R)-4-isopropyl-1,3-dimethyl-2-oxo-1,2,3,4-tetrahydropyrido[2,3-b]pyrazin-6-yl]amino}-benzenesulphonamide], the IC50 in experiment [1] was 125 nM; in experiment [2] it was 202 nM; in experiment [3], 55 nM.

In the case of `C[C@@H]1C(=O)N(C)c2ccc(Nc3cccc(S(=O)(=O)N[C@H]4CC[C@H](N5CCN(CC6CC6)CC5)CC4)c3)nc2N1C1CCOCC1` [Example 35, N-{trans-4-[4-(cyclopropylmethyl)-piperazin-1-yl]cyclohexyl}-3-{[(3R)-1,3-dimethyl-2-oxo-4-(tetrahydro-2H-pyran-4-yl)-1,2,3,4-tetrahydropyrido[2,3-b]pyrazin-6-yl]amino}-benzenesulphonamide], the values for the IC50 in experiment [1], in experiment [2] and in experiment [3] were 69 nM, 146 nM and 140 nM, respectively.

Take `C[C@@H]1C(=O)N(C)c2ccc(Nc3cccc(S(=O)(=O)N4CCN(CC(F)(F)F)CC4)c3)nc2N1C1CCOCC1` [Example 37, (3R)-1,3-dimethyl-4-(tetrahydro-2H-pyran-4-yl)-6-[(3-{[4-(2,2,2-trifluoroethyl)piperazin-1-yl]sulphonyl}phenyl)-amino]-3,4-dihydropyrido-[2,3-b]pyrazin-2(1H)-one]: the IC50 in experiment [1] is 16 nM; in experiment [2], 93 nM; in experiment [3] it was 74 nM.

For `C[C@@H]1C(=O)N(C)c2ccc(Nc3cccc(S(=O)(=O)N[C@H]4CC[C@H](N5CCN(CC6CC6)CC5)CC4)c3)nc2N1Cc1ccccc1` [Example 38, 3-{[(3R)-4-benzyl-1,3-dimethyl-2-oxo-1,2,3,4-tetrahydropyrido[2,3-b]pyrazin-6-yl]amino}-N-{trans-4-[4-(cyclopropyl-methyl)piperazin-1-yl]cyclohexyl}-benzenesulphonamide], the IC50 in experiment [1] was 48 nM; in experiment [2] it was 190 nM; in experiment [3], 20 nM.

As to `CNS(=O)(=O)c1cccc(Nc2ccc3c(n2)N(C2CCOCC2)[C@H](C)C(=O)N3C)c1` [Example 39, 3-{[(3R)-1,3-dimethyl-2-oxo-4-(tetrahydro-2H-pyran-4-yl)-1,2,3,4-tetrahydropyrido[2,3-b]pyrazin-6-yl]amino}-N-methylbenzenesulphon-amide], the IC50 was 135 nM in experiment [1], 149 nM in experiment [2] and 90 nM in experiment [3].

For `COc1ccc(S(=O)(=O)N2CCN(C)CC2)cc1Nc1ccc2c(n1)N(C1CCOCC1)[C@H](C)C(=O)N2C` [Example 40, (3R)-6-({2-methoxy-5-[(4-methylpiperazin-1-yl)sulphonyl]phenyl}-amino)-1,3-dimethyl-4-(tetrahydro-2H-pyran-4-yl)-3,4-dihydropyrido[2,3-b]pyrazin-2(1H)-one], the results for the IC50 in experiment [1], in experiment [2] and in experiment [3] were 52 nM, 314 nM and 98 nM, respectively.

For the compound `C[C@@H]1C(=O)N(C)c2ccc(Nc3cccc(S(=O)(=O)N(C)C)c3)nc2N1C1CCN(C)CC1` [Example 41, 3-{[(3R)-1,3-dimethyl-4-(1-methylpiperidin-4-yl)-2-oxo-1,2,3,4-tetrahydropyrido[2,3-b]pyrazin-6-yl]amino}-N,N-dimethylbenzene-sulphonamide], the IC50 is 43 nM in experiment [1], 52 nM in experiment [2] and 22 nM in experiment [3].

For `CC(C)N1c2nc(Nc3cccc(S(=O)(=O)N4CCN(C)CC4)c3)ccc2N(C)C(=O)[C@H]1C` [Example 43, (3R)-4-isopropyl-1,3-dimethyl-6-({3-[(4-methylpiperazin-1-yl)sulphonyl]phenyl}-amino)-3,4-dihydropyrido-[2,3-b]pyrazin-2(1H)-one], the IC50 in experiment [1] was determined as 96 nM; in experiment [2], 537 nM; in experiment [3], 196 nM.

The values above are taken from patent US20160176867A1, “MODIFIED BET-PROTEIN-INHIBITING DIHYDROQUINOXALINONES AND DIHYDROPYRIDOPYRAZINONES” (BAYER PHARMA AKTIENGESELLSCHAFT, priority 2013, published 2016).
